Key:
Experiment in all cases: radiometric filter-binding kinase assay, Kinase HotSpot
Settings in all cases: compound 0.5 µM; ATP 10 µM
PRKD3 (human) = PRKD3 (human) (UniProt O94806)
MAP3K7 TAB1 (human) = MAP3K7 TAB1 (human) (UniProt O43318+Q15750)
PRKCE (human) = PRKCE (human) (UniProt Q02156)
CAMK2A (human) = CAMK2A (human) (UniProt Q9UQM7)
ADRBK1 (human) = ADRBK1 (human) (UniProt P25098)
KDR (human) = KDR (human) (UniProt P35968)
CLK1 (human) = CLK1 (human) (UniProt P49759)
YES1 (human) = YES1 (human) (UniProt P07947)
MAPK10 (human) = MAPK10 (human) (UniProt P53779)
CDK2 CCNE1 (human) = CDK2 CCNE1 (human) (UniProt P24941+P24864)
MAPKAPK2 (human) = MAPKAPK2 (human) (UniProt P49137)
AURKB (human) = AURKB (human) (UniProt Q96GD4)
RPS6KA5 KD2 (human) = RPS6KA5 KD2 (human) (UniProt O75582)
MAPKAPK3 (human) = MAPKAPK3 (human) (UniProt Q16644)
MAP3K10 (human) = MAP3K10 (human) (UniProt Q02779)
PRKCB2 (human) = PRKCB2 (human) (UniProt P05771)
EPHB3 (human) = EPHB3 (human) (UniProt P54753)
SRPK1 (human) = SRPK1 (human) (UniProt Q96SB4)
PTK2 (human) = PTK2 (human) (UniProt Q05397)
PTK6 (human) = PTK6 (human) (UniProt Q13882)
TAOK1 (human) = TAOK1 (human) (UniProt Q7L7X3)
IGF1R (human) = IGF1R (human) (UniProt P08069)
RPS6KA1 KD1 KD2 (human) = RPS6KA1 KD1 KD2 (human) (UniProt Q15418)
CHUK (human) = CHUK (human) (UniProt O15111)
PRKCG (human) = PRKCG (human) (UniProt P05129)
MET (human) = MET (human) (UniProt P08581)
RET (human) = RET (human) (UniProt P07949)
PIM1 (human) = PIM1 (human) (UniProt P11309)
IRAK4 (human) = IRAK4 (human) (UniProt Q9NWZ3)
MAP3K8 (human) = MAP3K8 (human) (UniProt P41279)
STK25 (human) = STK25 (human) (UniProt O00506)
CLK4 (human) = CLK4 (human) (UniProt Q9HAZ1)
RPS6KA4 KD2 (human) = RPS6KA4 KD2 (human) (UniProt O75676)
ULK1 (human) = ULK1 (human) (UniProt O75385)
ERBB2 (human) = ERBB2 (human) (UniProt P04626)
[1] = test system: PRKCQ (human), Q04759 [P330L]
NTRK1 (human) = NTRK1 (human) (UniProt P04629)
EPHA7 (human) = EPHA7 (human) (UniProt Q15375)
MAP4K5 (human) = MAP4K5 (human) (UniProt Q9Y4K4)
PASK (human) = PASK (human) (UniProt Q96RG2)
RPS6KA6 KD1 KD2 (human) = RPS6KA6 KD1 KD2 (human) (UniProt Q9UK32)
EPHB4 (human) = EPHB4 (human) (UniProt P54760)
Sequence of EPHB4 (human) (P54760 whole entry, looked up): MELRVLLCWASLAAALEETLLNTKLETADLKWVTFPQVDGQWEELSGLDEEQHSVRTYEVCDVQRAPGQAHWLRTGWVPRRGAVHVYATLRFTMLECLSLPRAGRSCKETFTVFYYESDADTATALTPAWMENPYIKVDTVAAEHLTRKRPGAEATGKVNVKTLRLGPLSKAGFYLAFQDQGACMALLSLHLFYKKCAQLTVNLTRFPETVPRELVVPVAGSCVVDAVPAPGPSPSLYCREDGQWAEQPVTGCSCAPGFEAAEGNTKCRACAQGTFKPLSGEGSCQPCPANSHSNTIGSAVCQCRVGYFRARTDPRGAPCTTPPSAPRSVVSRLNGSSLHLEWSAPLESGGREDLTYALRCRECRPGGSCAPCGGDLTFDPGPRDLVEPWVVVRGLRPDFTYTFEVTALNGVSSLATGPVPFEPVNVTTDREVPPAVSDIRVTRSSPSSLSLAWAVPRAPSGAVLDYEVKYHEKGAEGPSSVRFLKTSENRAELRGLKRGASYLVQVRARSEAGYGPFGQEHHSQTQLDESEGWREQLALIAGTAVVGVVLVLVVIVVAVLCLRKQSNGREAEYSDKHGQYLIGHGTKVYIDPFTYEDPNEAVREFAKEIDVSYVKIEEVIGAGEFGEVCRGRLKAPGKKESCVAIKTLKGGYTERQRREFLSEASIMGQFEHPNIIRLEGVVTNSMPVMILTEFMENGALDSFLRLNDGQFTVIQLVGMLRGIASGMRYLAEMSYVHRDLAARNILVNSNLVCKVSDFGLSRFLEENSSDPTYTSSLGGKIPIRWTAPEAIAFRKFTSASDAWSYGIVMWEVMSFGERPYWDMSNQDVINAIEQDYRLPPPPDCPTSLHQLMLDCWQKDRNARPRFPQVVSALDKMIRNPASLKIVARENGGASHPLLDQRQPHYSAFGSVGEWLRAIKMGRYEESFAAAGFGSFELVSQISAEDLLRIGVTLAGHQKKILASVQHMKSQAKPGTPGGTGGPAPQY

Sequence of MAPKAPK2 (human) (P49137 whole entry, looked up): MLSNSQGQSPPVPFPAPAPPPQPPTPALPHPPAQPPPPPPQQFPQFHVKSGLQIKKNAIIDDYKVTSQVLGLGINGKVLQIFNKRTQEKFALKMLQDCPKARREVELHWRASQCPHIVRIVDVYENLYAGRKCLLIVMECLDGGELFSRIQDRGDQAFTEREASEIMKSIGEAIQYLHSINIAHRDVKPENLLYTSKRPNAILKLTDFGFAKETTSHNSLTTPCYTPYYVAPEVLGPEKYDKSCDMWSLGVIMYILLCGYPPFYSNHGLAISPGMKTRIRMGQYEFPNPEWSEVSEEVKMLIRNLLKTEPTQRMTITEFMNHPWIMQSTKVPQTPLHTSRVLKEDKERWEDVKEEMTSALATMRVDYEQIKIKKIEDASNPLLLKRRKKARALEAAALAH
Sequence of STK25 (human) (O00506 whole entry, looked up): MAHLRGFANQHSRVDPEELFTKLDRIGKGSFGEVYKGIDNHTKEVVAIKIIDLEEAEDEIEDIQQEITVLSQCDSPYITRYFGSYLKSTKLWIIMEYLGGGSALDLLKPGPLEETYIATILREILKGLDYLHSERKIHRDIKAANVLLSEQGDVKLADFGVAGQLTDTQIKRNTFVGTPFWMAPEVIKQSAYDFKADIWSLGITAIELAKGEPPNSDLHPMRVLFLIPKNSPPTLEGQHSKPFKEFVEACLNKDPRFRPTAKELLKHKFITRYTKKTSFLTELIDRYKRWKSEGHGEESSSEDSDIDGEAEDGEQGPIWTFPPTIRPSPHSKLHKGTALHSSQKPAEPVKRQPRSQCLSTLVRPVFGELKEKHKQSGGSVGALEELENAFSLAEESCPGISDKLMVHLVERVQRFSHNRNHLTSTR
Sequence of PTK2 (human) (Q05397 whole entry, looked up): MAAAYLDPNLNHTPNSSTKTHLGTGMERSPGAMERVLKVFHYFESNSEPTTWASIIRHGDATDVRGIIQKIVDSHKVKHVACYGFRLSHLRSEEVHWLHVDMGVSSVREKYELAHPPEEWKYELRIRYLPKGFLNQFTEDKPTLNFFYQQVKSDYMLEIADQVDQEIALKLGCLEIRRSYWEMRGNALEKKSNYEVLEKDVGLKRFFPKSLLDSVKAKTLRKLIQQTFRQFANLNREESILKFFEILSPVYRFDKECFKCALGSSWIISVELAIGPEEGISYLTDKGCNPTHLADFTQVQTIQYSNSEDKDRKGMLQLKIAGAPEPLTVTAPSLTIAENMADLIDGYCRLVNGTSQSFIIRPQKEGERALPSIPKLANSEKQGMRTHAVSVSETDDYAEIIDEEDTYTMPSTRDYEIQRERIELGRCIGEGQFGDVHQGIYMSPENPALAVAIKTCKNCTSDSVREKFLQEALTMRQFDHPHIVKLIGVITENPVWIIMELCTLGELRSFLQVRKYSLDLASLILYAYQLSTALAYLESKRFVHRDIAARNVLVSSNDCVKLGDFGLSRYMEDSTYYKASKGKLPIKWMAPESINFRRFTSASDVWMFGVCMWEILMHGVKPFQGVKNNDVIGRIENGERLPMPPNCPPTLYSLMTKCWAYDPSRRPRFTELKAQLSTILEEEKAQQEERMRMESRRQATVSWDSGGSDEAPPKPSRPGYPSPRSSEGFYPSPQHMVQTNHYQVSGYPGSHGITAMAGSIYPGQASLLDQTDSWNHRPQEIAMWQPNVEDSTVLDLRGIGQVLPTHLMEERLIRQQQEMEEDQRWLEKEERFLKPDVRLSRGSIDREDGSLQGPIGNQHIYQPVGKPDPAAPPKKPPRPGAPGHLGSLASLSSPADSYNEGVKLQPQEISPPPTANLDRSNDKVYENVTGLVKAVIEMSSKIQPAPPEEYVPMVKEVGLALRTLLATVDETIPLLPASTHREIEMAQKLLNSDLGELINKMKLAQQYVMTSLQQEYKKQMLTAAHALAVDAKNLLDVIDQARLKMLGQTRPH
Sequence of CLK1 (human) (P49759 whole entry, looked up): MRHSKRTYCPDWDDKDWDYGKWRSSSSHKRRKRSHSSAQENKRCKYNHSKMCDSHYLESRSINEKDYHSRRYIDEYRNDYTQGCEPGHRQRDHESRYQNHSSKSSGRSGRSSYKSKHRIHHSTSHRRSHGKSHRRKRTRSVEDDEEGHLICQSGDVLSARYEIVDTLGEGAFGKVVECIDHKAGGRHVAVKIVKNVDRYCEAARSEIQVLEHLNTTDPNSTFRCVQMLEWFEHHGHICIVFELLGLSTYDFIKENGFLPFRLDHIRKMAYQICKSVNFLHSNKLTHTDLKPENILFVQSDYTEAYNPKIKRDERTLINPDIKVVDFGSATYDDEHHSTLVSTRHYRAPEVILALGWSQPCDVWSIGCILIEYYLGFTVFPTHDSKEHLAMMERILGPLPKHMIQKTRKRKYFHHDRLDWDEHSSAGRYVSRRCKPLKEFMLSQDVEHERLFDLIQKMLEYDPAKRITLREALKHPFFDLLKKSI
Sequence of ULK1 (human) (O75385 whole entry, looked up): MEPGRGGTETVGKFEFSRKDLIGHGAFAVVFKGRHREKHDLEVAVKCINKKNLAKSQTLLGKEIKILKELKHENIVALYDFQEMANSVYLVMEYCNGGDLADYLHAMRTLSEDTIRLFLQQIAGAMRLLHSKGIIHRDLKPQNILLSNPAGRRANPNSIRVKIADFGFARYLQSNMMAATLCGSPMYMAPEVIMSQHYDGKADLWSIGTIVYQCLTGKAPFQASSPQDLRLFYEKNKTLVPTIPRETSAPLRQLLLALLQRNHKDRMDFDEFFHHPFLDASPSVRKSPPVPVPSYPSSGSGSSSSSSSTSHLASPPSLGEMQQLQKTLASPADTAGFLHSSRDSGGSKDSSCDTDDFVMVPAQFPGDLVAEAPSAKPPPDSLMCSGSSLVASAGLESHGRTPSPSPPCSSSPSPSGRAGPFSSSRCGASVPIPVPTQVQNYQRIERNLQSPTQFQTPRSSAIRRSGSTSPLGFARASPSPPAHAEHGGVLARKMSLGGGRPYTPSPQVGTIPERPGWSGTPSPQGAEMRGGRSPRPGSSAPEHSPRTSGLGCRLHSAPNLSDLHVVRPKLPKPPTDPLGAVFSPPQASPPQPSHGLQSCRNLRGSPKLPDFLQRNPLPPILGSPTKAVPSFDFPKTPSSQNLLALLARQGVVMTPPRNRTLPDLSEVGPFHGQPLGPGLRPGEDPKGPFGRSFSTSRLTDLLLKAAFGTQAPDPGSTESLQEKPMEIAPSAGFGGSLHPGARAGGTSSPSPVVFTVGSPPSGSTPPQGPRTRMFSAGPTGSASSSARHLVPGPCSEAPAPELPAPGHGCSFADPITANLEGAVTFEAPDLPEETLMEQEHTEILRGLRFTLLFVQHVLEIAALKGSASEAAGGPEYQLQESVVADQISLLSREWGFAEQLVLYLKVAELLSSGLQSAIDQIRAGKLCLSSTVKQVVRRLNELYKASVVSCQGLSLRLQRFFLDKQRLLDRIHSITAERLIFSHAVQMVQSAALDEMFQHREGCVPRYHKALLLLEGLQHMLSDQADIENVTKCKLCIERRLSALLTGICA
Sequence of AURKB (human) (Q96GD4 whole entry, looked up): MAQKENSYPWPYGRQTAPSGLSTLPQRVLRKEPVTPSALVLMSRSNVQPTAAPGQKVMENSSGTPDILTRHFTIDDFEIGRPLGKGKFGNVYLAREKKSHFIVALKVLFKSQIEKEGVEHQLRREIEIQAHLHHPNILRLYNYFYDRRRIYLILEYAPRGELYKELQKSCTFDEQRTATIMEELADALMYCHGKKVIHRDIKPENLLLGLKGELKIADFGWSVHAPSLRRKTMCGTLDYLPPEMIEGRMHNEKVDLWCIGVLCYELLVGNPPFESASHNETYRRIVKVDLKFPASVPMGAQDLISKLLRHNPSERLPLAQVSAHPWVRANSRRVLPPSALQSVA

CC(C)(C)c1cc(C=C(C#N)C#N)cc(Br)c1O
residual activity (PRKD3 (human)): 92.7%
residual activity (MAP3K7 TAB1 (human)): 87.9%
residual activity (PRKCE (human)): 108%
residual activity (CAMK2A (human)): 104%
residual activity (ADRBK1 (human)): 83.7%
residual activity (KDR (human)): 97.8%
residual activity (CLK1 (human)): 112%
residual activity (YES1 (human)): 83%
residual activity (MAPK10 (human)): 92.5%
residual activity (CDK2 CCNE1 (human)): 77.6%
residual activity (MAPKAPK2 (human)): 92.3%
residual activity (AURKB (human)): 97.1%
residual activity (RPS6KA5 KD2 (human)): 108%
residual activity (MAPKAPK3 (human)): 103%
residual activity (MAP3K10 (human)): 100%
residual activity (PRKCB2 (human)): 129%
residual activity (EPHB3 (human)): 107%
residual activity (SRPK1 (human)): 101%
residual activity (PTK2 (human)): 107%
residual activity (PTK6 (human)): 91.4%
residual activity (TAOK1 (human)): 97.9%
residual activity (IGF1R (human)): 96.6%
residual activity (RPS6KA1 KD1 KD2 (human)): 104%
residual activity (CHUK (human)): 89.7%
residual activity (PRKCG (human)): 90.4%
residual activity (MET (human)): 111%
residual activity (RET (human)): 98.2%
residual activity (PIM1 (human)): 94.7%
residual activity (IRAK4 (human)): 182%
residual activity (MAP3K8 (human)): 104%
residual activity (STK25 (human)): 102%
residual activity (CLK4 (human)): 88.6%
residual activity (RPS6KA4 KD2 (human)): 90.9%
residual activity (ULK1 (human)): 88.2%
residual activity (ERBB2 (human)): 95.7%
residual activity [1]: 98%
residual activity (NTRK1 (human)): 100%
residual activity (EPHA7 (human)): 107%
residual activity (MAP4K5 (human)): 95.8%
residual activity (PASK (human)): 96.7%
residual activity (RPS6KA6 KD1 KD2 (human)): 101%

COc1cc2ncnc(Nc3ccc(Oc4ccccc4)cc3)c2cc1OC
residual activity (PRKD3 (human)): 95.8%
residual activity (MAP3K7 TAB1 (human)): 102%
residual activity (PRKCE (human)): 94.6%
residual activity (CAMK2A (human)): 102%
residual activity (ADRBK1 (human)): 101%
residual activity (KDR (human)): 92.1%
residual activity (CLK1 (human)): 100%
residual activity (YES1 (human)): 7.96%
residual activity (MAPK10 (human)): 103%
residual activity (CDK2 CCNE1 (human)): 87.8%
residual activity (MAPKAPK2 (human)): 103%
residual activity (AURKB (human)): 50.9%
residual activity (RPS6KA5 KD2 (human)): 106%
residual activity (MAPKAPK3 (human)): 98.9%
residual activity (MAP3K10 (human)): 96.7%
residual activity (PRKCB2 (human)): 92.8%
residual activity (EPHB3 (human)): 103%
residual activity (SRPK1 (human)): 105%
residual activity (PTK2 (human)): 98.1%
residual activity (PTK6 (human)): -0.0383%
residual activity (TAOK1 (human)): 105%
residual activity (IGF1R (human)): 102%
residual activity (RPS6KA1 KD1 KD2 (human)): 97.6%
residual activity (CHUK (human)): 101%
residual activity (PRKCG (human)): 84.6%
residual activity (RET (human)): 40.6%
residual activity (EPHB4 (human)): 85.5%
residual activity (PIM1 (human)): 102%
residual activity (IRAK4 (human)): 112%
residual activity (MAP3K8 (human)): 68.9%
residual activity (STK25 (human)): 109%
residual activity (CLK4 (human)): 122%
residual activity (RPS6KA4 KD2 (human)): 94.4%
residual activity (ULK1 (human)): 89.5%
residual activity (ERBB2 (human)): 29.5%
residual activity [1]: 124%
residual activity (NTRK1 (human)): 101%
residual activity (EPHA7 (human)): 100%
residual activity (MAP4K5 (human)): 70.6%
residual activity (PASK (human)): 104%
residual activity (RPS6KA6 KD1 KD2 (human)): 111%

O=C1C(Cl)=C(N2C(=O)CCC2=O)C(=O)c2ccccc21
residual activity (PRKD3 (human)): 88.2%
residual activity (MAP3K7 TAB1 (human)): 99.5%
residual activity (CAMK2A (human)): 89.6%
residual activity (ADRBK1 (human)): 105%
residual activity (KDR (human)): 88.3%
residual activity (CLK1 (human)): 103%
residual activity (YES1 (human)): 103%
residual activity (MAPK10 (human)): 93.6%
residual activity (CDK2 CCNE1 (human)): 90.3%
residual activity (MAPKAPK2 (human)): 105%
residual activity (AURKB (human)): 103%
residual activity (RPS6KA5 KD2 (human)): 101%
residual activity (MAPKAPK3 (human)): 103%
residual activity (MAP3K10 (human)): 92.8%
residual activity (PRKCB2 (human)): 108%
residual activity (EPHB3 (human)): 97%
residual activity (SRPK1 (human)): 103%
residual activity (PTK2 (human)): 98.4%
residual activity (PTK6 (human)): 94.8%
residual activity (TAOK1 (human)): 83.1%
residual activity (IGF1R (human)): 107%
residual activity (RPS6KA1 KD1 KD2 (human)): 96.6%
residual activity (CHUK (human)): 101%
residual activity (PRKCG (human)): 97.5%
residual activity (MET (human)): 109%
residual activity (RET (human)): 98%
residual activity (EPHB4 (human)): 98.7%
residual activity (PIM1 (human)): 100%
residual activity (IRAK4 (human)): 89.1%
residual activity (MAP3K8 (human)): 91.8%
residual activity (STK25 (human)): 107%
residual activity (CLK4 (human)): 94.1%
residual activity (RPS6KA4 KD2 (human)): 115%
residual activity (ULK1 (human)): 107%
residual activity (ERBB2 (human)): 95.4%
residual activity [1]: 114%
residual activity (NTRK1 (human)): 97%
residual activity (EPHA7 (human)): 106%
residual activity (MAP4K5 (human)): 90.4%
residual activity (PASK (human)): 103%
residual activity (RPS6KA6 KD1 KD2 (human)): 99.9%

CN(C)CCCn1cc(C2=C(c3c[nH]c4ccccc34)C(=O)NC2=O)c2ccccc21
residual activity (PRKD3 (human)): 54.6%
residual activity (MAP3K7 TAB1 (human)): 93.6%
residual activity (PRKCE (human)): 0.493%
residual activity (CAMK2A (human)): 35.2%
residual activity (ADRBK1 (human)): 96.5%
residual activity (KDR (human)): 65.5%
residual activity (CLK1 (human)): 60.3%
residual activity (YES1 (human)): 84.6%
residual activity (MAPK10 (human)): 99.3%
residual activity (CDK2 CCNE1 (human)): 80.4%
residual activity (MAPKAPK2 (human)): 85.4%
residual activity (AURKB (human)): 86.6%
residual activity (RPS6KA5 KD2 (human)): 17%
residual activity (MAPKAPK3 (human)): 95.3%
residual activity (MAP3K10 (human)): 81.8%
residual activity (PRKCB2 (human)): 12.6%
residual activity (EPHB3 (human)): 95.2%
residual activity (SRPK1 (human)): 87%
residual activity (PTK2 (human)): 86.1%
residual activity (PTK6 (human)): 95.3%
residual activity (TAOK1 (human)): 80.8%
residual activity (IGF1R (human)): 91.7%
residual activity (RPS6KA1 KD1 KD2 (human)): 4.67%
residual activity (CHUK (human)): 105%
residual activity (PRKCG (human)): 17.6%
residual activity (MET (human)): 102%
residual activity (RET (human)): 93.4%
residual activity (EPHB4 (human)): 86.8%
residual activity (IRAK4 (human)): 135%
residual activity (MAP3K8 (human)): 93.9%
residual activity (STK25 (human)): 69.7%
residual activity (CLK4 (human)): 44.8%
residual activity (RPS6KA4 KD2 (human)): 34.9%
residual activity (ULK1 (human)): 84.7%
residual activity (ERBB2 (human)): 96.5%
residual activity [1]: 17.3%
residual activity (NTRK1 (human)): 108%
residual activity (EPHA7 (human)): 97%
residual activity (MAP4K5 (human)): 68.5%
residual activity (PASK (human)): 67%
residual activity (RPS6KA6 KD1 KD2 (human)): 3.97%

— the kinase profiling compilation of Christmann-Franck et al. (2016)
